Reference: ChEMBL document CHEMBL1201861, “Genomics of Drug Sensitity in Cancer screening data, Wellcome Trust Sanger Institute”

Legend:
Test in all cases: cells
JAR = format: functional, cell-based, Homo sapiens; details: Homo sapiens, JAR;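 note: growth inhibition of human JAR cells determined with a cell viability assay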
Description: SANGER: Inhibition of human JAR cell growth in a cell viability assay.

NCI-H1650 = format: functional, cell-based, Homo sapiens; details: Homo sapiens, NCI-H1650;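 note: growth inhibition of human NCI-H1650 cells measured by a cell viability assay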
Description: SANGER: Inhibition of human NCI-H1650 cell growth in a cell viability assay.

HuTu80 = format: functional, cell-based, Homo sapiens, HUTU-80; details: Homo sapiens, HuTu80;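 note: growth inhibition of HuTu80 human cells, determined with a cell viability readout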
Description: SANGER: Inhibition of human HUTU-80 cell growth in a cell viability assay.

GCT = format: functional, cell-based, Homo sapiens; details: Homo sapiens, GCT;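 note: GCT cell line proliferation inhibition, read out with a cell viability assay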
Description: SANGER: Inhibition of human GCT cell growth in a cell viability assay.

KARPAS-45 = format: functional, cell-based; details: Homo sapiens;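 note: inhibition of cell line growth, read out through a viability assay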
Description: SANGER: Inhibition of human KARPAS-45 cell growth in a cell viability assay.

8305C = format: functional, cell-based, Homo sapiens; details: Homo sapiens, 8305C
Description: SANGER: Inhibition of human 8305C cell growth in a cell viability assay.

SK-MEL-24 = format: functional, cell-based; details: Homo sapiens;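 note: growth inhibition read out by a cell viability assay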
Description: SANGER: Inhibition of human SK-MEL-24 cell growth in a cell viability assay.

TE-6 = format: functional, cell-based, Homo sapiens; details: Homo sapiens, TE-6;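 note: growth inhibition of TE-6 cells, read out with a cell viability assay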
Description: SANGER: Inhibition of human TE-6 cell growth in a cell viability assay.

LC-2-ad = format: functional, cell-based, Homo sapiens; details: Homo sapiens, LC-2-ad;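 note: growth inhibition of human LC-2-ad cells, read out with a cell viability assay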
Description: SANGER: Inhibition of human LC-2-ad cell growth in a cell viability assay.

LN-405 = format: functional, cell-based, Homo sapiens; details: Homo sapiens, LN-405
Description: SANGER: Inhibition of human LN-405 cell growth in a cell viability assay.

NOMO-1 = format: functional, cell-based; details: Homo sapiens;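 note: growth inhibition of human NOMO-1 cells measured by a cell viability assay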
Description: SANGER: Inhibition of human NOMO-1 cell growth in a cell viability assay.

CTB-1 = format: functional, cell-based; details: Homo sapiens
Description: SANGER: Inhibition of human CTB-1 cell growth in a cell viability assay.

D-247MG = format: functional, cell-based, Homo sapiens; details: Homo sapiens, D-247MG
Description: SANGER: Inhibition of human D-247MG cell growth in a cell viability assay.

DBTRG-05MG = format: functional, cell-based, Homo sapiens; details: Homo sapiens, DBTRG-05MG;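 note: cell viability assay measuring growth inhibition of human DBTRG-05MG cells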
Description: SANGER: Inhibition of human DBTRG-05MG cell growth in a cell viability assay.

MV4-11 = format: functional, cell-based, MV-4-11; details: Homo sapiens;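 note: cell viability readout measuring growth inhibition of human MV-4-11 cells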
Description: SANGER: Inhibition of human MV-4-11 cell growth in a cell viability assay.

BB49-HNC = format: functional, cell-based, Homo sapiens; details: Homo sapiens, BB49-HNC;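 note: cell viability assay read-out, reported as inhibition of BB49-HNC cell growth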
Description: SANGER: Inhibition of human BB49-HNC cell growth in a cell viability assay.

SW 962 = format: functional, cell-based, Homo sapiens; details: Homo sapiens, SW 962;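 note: growth inhibition of human SW962 cells, read out by a cell viability assay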
Description: SANGER: Inhibition of human SW962 cell growth in a cell viability assay.

NCI-H526 = format: functional, cell-based; details: Homo sapiens;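 note: growth inhibition of the human NCI-H526 cell line, measured by a cell viability assay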
Description: SANGER: Inhibition of human NCI-H526 cell growth in a cell viability assay.

COLO-792 = format: functional, cell-based, Homo sapiens; details: Homo sapiens, COLO-792
Description: SANGER: Inhibition of human COLO-792 cell growth in a cell viability assay.

TGBC24TKB = format: functional, cell-based, Homo sapiens; details: Homo sapiens, TGBC24TKB;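 note: growth inhibition of human TGBC24TKB cells, read out with a cell viability assay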
Description: SANGER: Inhibition of human TGBC24TKB cell growth in a cell viability assay.

NCI-H2342 = format: functional, cell-based; details: Homo sapiens;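 note: growth inhibition of the cancer cell line, determined with a cell viability assay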
Description: SANGER: Inhibition of human NCI-H2342 cell growth in a cell viability assay.

ETK-1 = format: functional, cell-based, Homo sapiens; details: Homo sapiens, ETK-1;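 note: growth inhibition of human ETK-1 cells, read out with a cell viability assay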
Description: SANGER: Inhibition of human ETK-1 cell growth in a cell viability assay.

SCC-15 = format: functional, cell-based, Homo sapiens; details: Homo sapiens, SCC-15;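 note: growth inhibition of SCC-15 cells, read out with a cell viability assay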
Description: SANGER: Inhibition of human SCC-15 cell growth in a cell viability assay.

LB831-BLC = format: functional, cell-based, Homo sapiens; details: Homo sapiens, LB831-BLC;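 note: growth inhibition of LB831-BLC cells, read out with a cell viability assay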
Description: SANGER: Inhibition of human LB831-BLC cell growth in a cell viability assay.

GR-ST = format: functional, cell-based; details: Homo sapiens
Description: SANGER: Inhibition of human GR-ST cell growth in a cell viability assay.

UACC-893 = format: functional, cell-based, Homo sapiens; details: Homo sapiens, UACC-893
Description: SANGER: Inhibition of human UACC-893 cell growth in a cell viability assay.

ES5 = format: functional, cell-based, Homo sapiens; details: Homo sapiens, ES5;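 note: growth inhibition of human ES5 cells, read out by a cell viability assay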
Description: SANGER: Inhibition of human ES5 cell growth in a cell viability assay.

RMG-I = format: functional, cell-based, Homo sapiens; details: Homo sapiens, RMG-I;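 note: growth inhibition of human RMG-I cells, read out with a cell viability assay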
Description: SANGER: Inhibition of human RMG-I cell growth in a cell viability assay.

KG-1 = format: functional, cell-based; details: Homo sapiens;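 note: growth inhibition of KG-1 cells, read out by a cell viability assay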
Description: SANGER: Inhibition of human KG-1 cell growth in a cell viability assay.

MOLT-16 = format: functional, cell-based; details: Homo sapiens;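 note: growth inhibition of human MOLT-16 cells, read out with a cell viability assay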
Description: SANGER: Inhibition of human MOLT-16 cell growth in a cell viability assay.

MC116 = format: functional, cell-based; details: Homo sapiens;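 note: growth inhibition of MC116 cells, read out with a cell viability assay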
Description: SANGER: Inhibition of human MC116 cell growth in a cell viability assay.

SW-620 = format: functional, cell-based, Homo sapiens; details: Homo sapiens, SW-620;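 note: growth inhibition of human SW-620 cells, measured by a cell viability assay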
Description: SANGER: Inhibition of human SW620 cell growth in a cell viability assay.

SW684 = format: functional, cell-based, Homo sapiens; details: Homo sapiens, SW684;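 note: growth inhibition of human SW684 cells, measured by a cell viability assay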
Description: SANGER: Inhibition of human SW684 cell growth in a cell viability assay.

LoVo = format: functional, cell-based; details: Homo sapiens;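 note: growth inhibition of human LoVo cells, read out with a cell viability assay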
Description: SANGER: Inhibition of human LoVo cell growth in a cell viability assay.

HuO-3N1 = format: functional, cell-based, Homo sapiens; details: Homo sapiens, HuO-3N1;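 note: cell viability readout used to measure how strongly compounds suppress proliferation of human HuO-3N1 cells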
Description: SANGER: Inhibition of human HuO-3N1 cell growth in a cell viability assay.

BT-20 = format: functional, cell-based, Homo sapiens; details: Homo sapiens, BT-20;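 note: cell viability assay measuring suppression of growth in human BT-20 cells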
Description: SANGER: Inhibition of human BT-20 cell growth in a cell viability assay.

NB5 = format: functional, cell-based, Homo sapiens; details: Homo sapiens, NB5;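 note: growth inhibition of NB5 cells, read out as cell viability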
Description: SANGER: Inhibition of human NB5 cell growth in a cell viability assay.

NCI-H1092 = format: functional, cell-based; details: Homo sapiens;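 note: cell growth inhibition measured with a cell viability assay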
Description: SANGER: Inhibition of human NCI-H1092 cell growth in a cell viability assay.

Daoy = format: functional, cell-based, Homo sapiens; details: Homo sapiens, Daoy;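 note: daoy cell growth inhibition, read out as cell viability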
Description: SANGER: Inhibition of human Daoy cell growth in a cell viability assay.

GB-1 = format: functional, cell-based, Homo sapiens; details: Homo sapiens, GB-1;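 note: growth of GB-1 cells judged by a viability assay, IC50 marks the concentration inhibiting growth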
Description: SANGER: Inhibition of human GB-1 cell growth in a cell viability assay.

KURAMOCHI = format: functional, cell-based; details: Homo sapiens;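 note: growth inhibition of KURAMOCHI cells, read out with a cell viability assay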
Description: SANGER: Inhibition of human KURAMOCHI cell growth in a cell viability assay.

RVH-421 = format: functional, cell-based, Homo sapiens; details: Homo sapiens, RVH-421
Description: SANGER: Inhibition of human RVH-421 cell growth in a cell viability assay.

SF-126 = format: functional, cell-based, Homo sapiens; details: Homo sapiens, SF-126;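 note: growth inhibition of human SF126 cells, read out with a cell viability assay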
Description: SANGER: Inhibition of human SF126 cell growth in a cell viability assay.

KYSE-410 = format: functional, cell-based, Homo sapiens; details: Homo sapiens, KYSE-410;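 note: growth inhibition of KYSE-410 cells, measured through a cell viability readout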
Description: SANGER: Inhibition of human KYSE-410 cell growth in a cell viability assay.

SiHa = format: functional, cell-based, Homo sapiens; details: Homo sapiens, SiHa;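 note: Viability-based readout of growth inhibition in SiHa cells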
Description: SANGER: Inhibition of human SiHa cell growth in a cell viability assay.

DJM-1 = format: functional, cell-based, Homo sapiens; details: Homo sapiens, DJM-1;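 note: growth inhibition of human DJM-1 cells, read out by a cell viability assay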
Description: SANGER: Inhibition of human DJM-1 cell growth in a cell viability assay.

EGI-1 = format: functional, cell-based, Homo sapiens; details: Homo sapiens, EGI-1;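 note: cell viability readout used to gauge growth inhibition of EGI-1 cells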
Description: SANGER: Inhibition of human EGI-1 cell growth in a cell viability assay.

G-402 = format: functional, cell-based, Homo sapiens; details: Homo sapiens, G-402
Description: SANGER: Inhibition of human G-402 cell growth in a cell viability assay.

MSTO-211H = format: functional, cell-based, Homo sapiens; details: Homo sapiens, MSTO-211H
Description: SANGER: Inhibition of human MSTO-211H cell growth in a cell viability assay.

OAW-28 = format: functional, cell-based, Homo sapiens; details: Homo sapiens, OAW-28;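 note: growth inhibition of OAW-28 cells, read out with a cell viability assay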
Description: SANGER: Inhibition of human OAW-28 cell growth in a cell viability assay.

COLO-320-HSR = format: functional, cell-based; details: Homo sapiens;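 note: growth inhibition of COLO-320-HSR cells, determined with a cell viability assay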
Description: SANGER: Inhibition of human COLO-320-HSR cell growth in a cell viability assay.

KM-H2 = format: functional, cell-based; details: Homo sapiens;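 note: growth inhibition of KM-H2 cells, read out by a cell viability assay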
Description: SANGER: Inhibition of human KM-H2 cell growth in a cell viability assay.

COc1cc([C@@H]2c3cc4c(cc3[C@@H](O[C@@H]3O[C@@H]5CO[C@@H](C)O[C@H]5[C@H](O)[C@H]3O)[C@H]3COC(=O)[C@H]23)OCO4)cc(OC)c1O [ETOPOSIDE]
IC50 (JAR): > 16000 nM | IC50 (NCI-H1650): 1740 nM | IC50 (HuTu80): 217 nM | IC50 (GCT): 3270 nM | IC50 (KARPAS-45): > 16000 nM | IC50 (8305C): 2320 nM | IC50 (SK-MEL-24): > 16000 nM | IC50 (TE-6): > 16000 nM | IC50 (LC-2-ad): 2060 nM | IC50 (LN-405): > 16000 nM | IC50 (NOMO-1): 2190 nM | IC50 (CTB-1): 1690 nM | IC50 (D-247MG): > 16000 nM | IC50 (DBTRG-05MG): 2630 nM | IC50 (MV4-11): 151 nM | IC50 (BB49-HNC): > 16000 nM | IC50 (SW 962): > 16000 nM | IC50 (NCI-H526): 456 nM | IC50 (COLO-792): > 16000 nM | IC50 (TGBC24TKB): > 16000 nM | IC50 (NCI-H2342): 555 nM | IC50 (ETK-1): 2750 nM | IC50 (SCC-15): 13100 nM | IC50 (LB831-BLC): 6150 nM | IC50 (GR-ST): 6690 nM | IC50 (UACC-893): > 16000 nM | IC50 (ES5): > 16000 nM | IC50 (RMG-I): > 16000 nM | IC50 (KG-1): 9720 nM | IC50 (MOLT-16): 12500 nM | IC50 (MC116): > 16000 nM | IC50 (SW-620): 384 nM | IC50 (SW684): > 16000 nM | IC50 (LoVo): 2060 nM | IC50 (HuO-3N1): 7710 nM | IC50 (BT-20): 4580 nM | IC50 (NB5): > 16000 nM | IC50 (NCI-H1092): > 16000 nM | IC50 (Daoy): 368 nM | IC50 (GB-1): 1610 nM | IC50 (KURAMOCHI): 699 nM | IC50 (RVH-421): > 16000 nM | IC50 (SF-126): 1440 nM | IC50 (KYSE-410): 12800 nM | IC50 (SiHa): > 16000 nM | IC50 (DJM-1): 203 nM | IC50 (EGI-1): 3270 nM | IC50 (G-402): 898 nM | IC50 (MSTO-211H): > 16000 nM | IC50 (OAW-28): 2150 nM | IC50 (COLO-320-HSR): 9730 nM | IC50 (KM-H2): 1670 nM

Cc1cnc(-c2cnc(NCCNc3ccc(C#N)cn3)nc2-c2ccc(Cl)cc2Cl)[nH]1 [LADUVIGLUSIB]
IC50 (JAR): > 2560 nM | IC50 (NCI-H1650): > 2560 nM | IC50 (HuTu80): > 2560 nM | IC50 (GCT): 307 nM | IC50 (KARPAS-45): > 2560 nM | IC50 (8305C): > 2560 nM | IC50 (SK-MEL-24): > 2560 nM | IC50 (TE-6): > 2560 nM | IC50 (LC-2-ad): > 2560 nM | IC50 (LN-405): > 2560 nM | IC50 (NOMO-1): > 2560 nM | IC50 (CTB-1): > 2560 nM | IC50 (D-247MG): 949 nM | IC50 (DBTRG-05MG): > 2560 nM | IC50 (MV4-11): > 2560 nM | IC50 (BB49-HNC): > 2560 nM | IC50 (SW 962): > 2560 nM | IC50 (NCI-H526): > 2560 nM | IC50 (COLO-792): > 2560 nM | IC50 (TGBC24TKB): > 2560 nM | IC50 (NCI-H2342): > 2560 nM | IC50 (ETK-1): > 2560 nM | IC50 (SCC-15): > 2560 nM | IC50 (LB831-BLC): > 2560 nM | IC50 (GR-ST): > 2560 nM | IC50 (UACC-893): > 2560 nM | IC50 (ES5): > 2560 nM | IC50 (RMG-I): > 2560 nM | IC50 (KG-1): > 2560 nM | IC50 (MOLT-16): > 2560 nM | IC50 (MC116): > 2560 nM | IC50 (SW-620): > 2560 nM | IC50 (SW684): > 2560 nM | IC50 (LoVo): > 2560 nM | IC50 (HuO-3N1): > 2560 nM | IC50 (BT-20): > 2560 nM | IC50 (NB5): > 2560 nM | IC50 (NCI-H1092): > 2560 nM | IC50 (Daoy): > 2560 nM | IC50 (GB-1): > 2560 nM | IC50 (KURAMOCHI): > 2560 nM | IC50 (RVH-421): > 2560 nM | IC50 (SF-126): > 2560 nM | IC50 (KYSE-410): > 2560 nM | IC50 (SiHa): > 2560 nM | IC50 (DJM-1): > 2560 nM | IC50 (EGI-1): > 2560 nM | IC50 (G-402): > 2560 nM | IC50 (MSTO-211H): > 2560 nM | IC50 (OAW-28): > 2560 nM | IC50 (COLO-320-HSR): > 2560 nM | IC50 (KM-H2): > 2560 nM
